# Assay results: US8048892B2, “Azaquinolone based compounds exhibiting prolyl hydroxylase inhibitory activity, compositions, and uses thereof” (Amgen Inc., priority 2006, dated 2011)
# Where a name gives a salt, the structure may show the parent alone.
# Target: HIF PHD2 (Homo sapiens, UniProt Q9GZT9)
# Assay: PHD2 inhibition assay (TR-FRET, VCB-Eu detection of hydroxylated P564-HIF1α peptide)
# Assay type: biochemical
# Settings: 2 nM PHD2, 100 nM P564-HIF1α peptide, 0.25 μM 2-oxoglutarate
# Protocol: Inhibition of HIF PHD2 activity was quantified utilizing the TR-FRET technology. HIF PHD2 catalyzes a hydroxyl modification on the proline residue of the P564-HIF1α peptide substrate (Biotin-DLEMLAPYIPMDDDFQL (SEQ ID NO: 7)) resulting in recognition and binding of the europylated Von Hippel-Lindau protein (pVHL), elongin B and elongin C heterotrimeric (VCB-Eu) complex.
# The PHD2 inhibition assay was executed by addition of freshly dissolved FeCl2 to 178.57 μM (100 μM final concentration) in PHD2 Reaction Buffer containing 30 mM MES, pH 6, 10 mM NaCl, 0.25% Brij-35, 0.01% BSA, and 1% DMSO. 28 μL of the iron solution and 2 μL of inhibitor compounds serially diluted in 100% DMSO (5% DMSO final) were added to black polypropylene 96-well microtiter plates. To that, 10 μL of 10 nM PHD2 (2 nM final) was added to all wells of the plate except for the 8 wells of column 12 (LO control), and allowed to incubate at room temperature on the shaker for one hour. Column 6 was the HI control containing PHD2 enzyme and 5% DMSO vehicle, but no inhibitor compound. To initiate the PHD2 enzymatic reaction, 10 μL of a solution containing 500 nM P564-HIF1α peptide (100 nM final), 10 mM ascorbic acid (2 mM final), and 1.25 μM 2-oxoglutarate (α-ketoglutarate; 0.25 μM final) in PHD2 Reaction Buffer was added to all wells of the plate and allowed to incubate on the shaker at room temperature for one hour.
# The reaction was terminated by addition of 25 μL TR-FRET Buffer (50 mM TRIS-HCl, pH 9, 100 mM NaCl, 0.05% BSA, and 0.5% Tween-20) containing 150 mM succinate (product inhibitor; 50 mM final), 75 nM streptavidin-APC (25 nM final), and 7.5 nM VCB-Eu (2.5 nM final). The TR-FRET detection reagents were placed on a shaker for 1 hour to reach binding equilibrium before reading on the Discovery platform (PerkinElmer). Europium is excited at 315 nm and phosphoresces at 615 nm with a large Stoke's shift. APC, in turn, emits at 655 nm upon excitation at 615 nm. The TR-FRET signal is measured as the ratio of the APC 655 nm signal divided by the internal europium reference 615 nm emission signal.
# The POC (percentage of control) was determined by comparing the signal from hydroxylated peptide substrate in the enzyme reaction containing inhibitor compound with that from PHD2 enzyme with DMSO vehicle alone (HI control), and no enzyme (LO control). POC was calculated using the formula: % control (POC)=(cpd−average LO)/(average HI−average LO)*100. Data (consisting of POC and inhibitor concentration in μM) was fitted to a 4-parameter equation (y=A+((B−A)/(1+((x/C)^D))), where A is the minimum y (POC) value, B is the maximum y (POC), C is the x (cpd concentration) at the point of inflection and D is the slope factor) using a Levenburg-Marquardt non-linear regression algorithm.
# Sequence of HIF PHD2 (Q9GZT9 whole entry): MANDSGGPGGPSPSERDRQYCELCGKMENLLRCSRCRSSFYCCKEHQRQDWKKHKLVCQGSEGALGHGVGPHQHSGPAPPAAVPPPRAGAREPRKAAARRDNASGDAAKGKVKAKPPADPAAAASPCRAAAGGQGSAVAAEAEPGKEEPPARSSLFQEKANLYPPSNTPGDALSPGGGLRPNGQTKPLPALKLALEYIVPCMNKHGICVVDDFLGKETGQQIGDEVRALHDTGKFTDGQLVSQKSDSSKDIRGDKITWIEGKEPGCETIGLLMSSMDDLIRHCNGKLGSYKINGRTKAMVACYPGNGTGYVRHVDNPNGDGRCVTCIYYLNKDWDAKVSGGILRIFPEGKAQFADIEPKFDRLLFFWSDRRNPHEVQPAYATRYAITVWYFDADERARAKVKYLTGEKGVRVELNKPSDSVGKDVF
row,IC50,Compound
1,< 0.05 µM,"Cc1ncccc1-c1cnc2c(c1)c(O)c(C(=O)NCC(=O)O)c(=O)n2C [Example 45, 2-(4-Hydroxy-1-methyl-6-(2-methylpyridin-3-yl)-2-oxo-1,8-naphthyridine-3-carboxamido)acetic acid]"
2,< 0.05 µM,"Cn1c(=O)c(C(=O)NCC(=O)O)c(O)c2cc(-c3ccccc3N3CCOCC3)cnc21 [Example 57, N-((4-Hydroxy-1-methyl-6-(2-(4-morpholinyl)phenyl)-2-oxo-1,2-dihydro-1,8-naphthyridin-3-yl)carbonyl)glycine]"
3,< 0.05 µM,"Cn1c(=O)c(C(=O)NCC(=O)O)c(O)c2cc(-c3cccnc3)cnc21 [Example 44, 2-(4-Hydroxy-1-methyl-2-oxo-6-(pyridin-3-yl)-1,2-dihydro-1,8-naphthyridine-3-carboxamido)acetic acid]"
4,0.05 to 0.1 µM,"Cn1c(=O)c(C(=O)NCC(=O)O)c(O)c2cc(C3CCCCO3)cnc21 (single isomer, unassigned) [Example 69, (R)-2-(4-hydroxy-1-methyl-2-oxo-6-(tetrahydro-2 H-pyran-2-yl)-1,2-dihydro-1,8-naphthyridine-3-carboxamido)acetic acid or (S)-2-(4-hydroxy-1-methyl-2-oxo-6-(tetrahydro-2 H-pyran-2-yl)-1,2-dihydro-1,8-naphthyridine-3-carboxamido)acetic acid]"
5,0.05 to 0.1 µM,"CC#Cc1cnc2c(O)c(C(=O)NCC(=O)O)c(=O)n(C)c2c1 [Example 8, 2-(4-Hydroxy-1-methyl-2-oxo-7-(prop-1-ynyl)-1,2-dihydro-1,5-naphthyridine-3-carboxamido)acetic acid]"
6,0.1 to 0.5 µM,"C[C@H](NC(=O)c1c(O)c2ccc(C(F)(F)F)nc2[nH]c1=O)C(=O)O [Example 88, (S)-2-(4-Hydroxy-2-oxo-7-(trifluoromethyl)-1,2-dihydro-1,8-naphthyridine-3-carboxamido)propanoic acid]"
7,< 0.05 µM,"Cn1c(=O)c(C(=O)NCC(=O)O)c(O)c2ccnc(C(F)(F)F)c21 [Example 127, 2-(4-Hydroxy-1-methyl-2-oxo-8-(trifluoromethyl)-1,2-dihydro-1,7-naphthyridine-3-carboxamido)acetic acid]"
8,0.05 to 0.1 µM,"Cc1ccccc1-c1cnc2c(c1)c(O)c(C(=O)NCC(=O)O)c(=O)n2C [Example 35, N-((4-Hydroxy-1-methyl-6-(2-methylphenyl)-2-oxo-1,2-dihydro-1,8-naphthyridin-3-yl)carbonyl)glycine]"
9,< 0.05 µM,"Cn1c(=O)c(C(=O)NCC(=O)O)c(O)c2c(Br)nccc21 [Example 130, 2-(5-Bromo-4-hydroxy-1-methyl-2-oxo-1,2-dihydro-1,6-naphthyridine-3-carboxamido)acetic acid, Trifluoroacetic acid salt]"
10,0.05 to 0.1 µM,"Cn1c(=O)c(C(=O)NCC(=O)O)c(O)c2c(C(F)(F)F)nccc21 [Example 132, 2-(4-Hydroxy-1-methyl-2-oxo-5-(trifluoromethyl)-1,2-dihydro-1,6-naphthyridine-3-carboxamido)acetic acid, Trifluoroacetic acid salt]"
11,< 0.05 µM,"Cn1c(=O)c(C(=O)NCC(=O)O)c(O)c2ccc(-c3cccnc3)nc21 [Example 17, N-((4-Hydroxy-1-methyl-2-oxo-7-(3-pyridinyl)-1,2-dihydro-1,8-naphthyridin-3-yl)carbonyl)glycine]"
12,< 0.05 µM,"COc1ccnc(-c2cnc3c(c2)c(O)c(C(=O)NCC(=O)O)c(=O)n3C)n1 [Example 29, 2-(4-Hydroxy-6-(4-methoxypyrimidin-2-yl)-1-methyl-2-oxo-1,2-dihydro-1,8-naphthyridine-3-carboxamido)acetic acid]"
13,< 0.05 µM,"COc1ccc2c(O)c(C(=O)NCC(=O)O)c(=O)n(C)c2n1 [Example 25, 2-(4-Hydroxy-7-methoxy-1-methyl-2-oxo-1,2-dihydro-1,8-naphthyridine-3-carboxamido)acetic acid]"
14,< 0.05 µM,"Cn1c(=O)c(C(=O)NCC(=O)O)c(O)c2cc(-c3ccc4c(c3)CCO4)ncc21 [Example 108, N-((6-(2,3-Dihydro-1-benzofuran-5-yl)-4-hydroxy-1-methyl-2-oxo-1,2-dihydro-1,7-naphthyridin-3-yl)carbonyl)glycine]"
15,< 0.05 µM,"Cn1c(=O)c(C(=O)NCC(=O)O)c(O)c2cc(-c3cccs3)ncc21 [Example 109, N-((4-Hydroxy-1-methyl-2-oxo-6-(2-thienyl)-1,2-dihydro-1,7-naphthyridin-3-yl)carbonyl)glycine]"
16,< 0.05 µM,"Cn1c(=O)c(C(=O)NCC(=O)O)c(O)c2c(Cl)nccc21 [Example 131, 2-(5-Chloro-4-hydroxy-1-methyl-2-oxo-1,2-dihydro-1,6-naphthyridine-3-carboxamido)acetic acid]"
17,< 0.05 µM,"Cn1c(=O)c(C(=O)NCC(=O)O)c(O)c2ccc(C3=CCCCC3)nc21 [Example 13, 2-(7-Cyclohexenyl-4-hydroxy-1-methyl-2-oxo-1,2-dihydro-1,8-naphthyridine-3-carboxamido)acetic acid]"
18,0.05 to 0.1 µM,Cn1c(=O)c(C(=O)NCC(=O)O)c(O)c2cc(-c3cccc(N4CCOCC4)c3)cnc21 [Example 54]
19,0.1 to 0.5 µM,"Cn1c(=O)c(C(=O)NCC(=O)O)c(O)c2cc(C3CCCCC3)c(C(F)(F)F)nc21 [Example 95, 2-(6-Cyclohexyl-4-hydroxy-1-methyl-2-oxo-7-(trifluoromethyl)-1,2-dihydro-1,8-naphthyridine-3-carboxamido)acetic acid]"
20,0.05 to 0.1 µM,"Cn1c(=O)c(C(=O)NCC(=O)O)c(O)c2cc(C3=CCOCC3)cnc21 [Example 26, 2-(6-(3,6-Dihydro-2 H-pyran-4-yl)-4-hydroxy-1-methyl-2-oxo-1,2-dihydro-1,8-naphthyridine-3-carboxamido)acetic acid]"
21,0.5 to 1 µM,"Cn1c(=O)c(C(=O)NCC(=O)O)c(O)c2ccc(N3CCC(C(F)(F)F)CC3)nc21 [Example 24, 2-(4-Hydroxy-1-methyl-2-oxo-7-(4-(trifluoromethyl)piperidin-1-yl)-1,2-dihydro-1,8-naphthyridine-3-carboxamido)acetic acid]"
22,0.05 to 0.1 µM,"Cn1c(=O)c(C(=O)NCC(=O)O)c(O)c2cc(C3CCCO3)cnc21 (stereo not shown) [Example 71, 2-(4-Hydroxy-1-methyl-2-oxo-6-(tetrahydrofuran-2-yl)-1,2-dihydro-1,8-naphthyridine-3-carboxamido)acetic acid]"
23,0.05 to 0.1 µM,"Cn1c(=O)c(C(=O)NCC(=O)O)c(O)c2cc(-c3cccc(C(F)(F)F)n3)cnc21 [Example 32, N-((4-Hydroxy-1-methyl-2-oxo-6-(6-(trifluoromethyl)-2-pyridinyl)-1,2-dihydro-1,8-naphthyridin-3-yl)carbonyl)glycine]"
24,0.05 to 0.1 µM,"Cn1c(=O)c(C(=O)NCC(=O)O)c(O)c2cc(-c3cccc(N4CCCCC4)c3)cnc21 [Example 59, N-((4-Hydroxy-1-methyl-2-oxo-6-(3-(1-piperidinyl)phenyl)-1,2-dihydro-1,8-naphthyridin-3-yl)carbonyl)glycine]"
25,< 0.05 µM,"Cc1ccc(-c2cnc3c(c2)c(O)c(C(=O)NCC(=O)O)c(=O)n3C)c(F)n1 [Example 48, N-((6-(2-Fluoro-6-methyl-3-pyridinyl)-4-hydroxy-1-methyl-2-oxo-1,2-dihydro-1,8-naphthyridin-3-yl)carbonyl)glycine]"
26,< 0.05 µM,"Cn1c(=O)c(C(=O)NCC(=O)O)c(O)c2ccc(-c3ccccc3)nc21 [Example 12, 2-(4-Hydroxy-1-methyl-2-oxo-7-phenyl-1,2-dihydro-1,8-naphthyridine-3-carboxamido)acetic acid]"
27,< 0.05 µM,"Cn1c(=O)c(C(=O)NCC(=O)O)c(O)c2cc(-c3ccccc3)ncc21 [Example 105, N-((4-Hydroxy-1-methyl-2-oxo-6-phenyl-1,2-dihydro-1,7-naphthyridin-3-yl)carbonyl)glycine]"
28,0.1 to 0.5 µM,"CC(C)Oc1ccccc1-c1cnc2c(c1)c(O)c(C(=O)NCC(=O)O)c(=O)n2C [Example 36, N-((4-Hydroxy-1-methyl-6-(2-((1-methylethyl)oxy)phenyl)-2-oxo-1,2-dihydro-1,8-naphthyridin-3-yl)carbonyl)glycine]"
